Assay results reported in patent publication US12109207B2, “Methods of using 4(1H)-quinolone derivatives” (Academia Sinica, priority 2019, dated 2024).
Like-named read-outs stand apart in the source and are kept apart here.

Assays:
[1] = tested on: H1975 cells; assay: Cell cytotoxicity assay (MTS), H1975; assay type: cell-based, human
Method: (§1) Cells were seeded into the wells of 96-well plates (2000 cells/well). After an overnight culture, the cells were treated with different concentrations of a compound for 72 h. The CellTiter 96 AQueous one-solution cell proliferation assay (MTS) reagent was used to determine cytotoxicity. After treatment with a compound, 20 μL of the MTS reagent was added to each well and the plates were incubated at 37° C. for 1-4 h. Next, the absorbance at 490 nm of the culture medium in each well was determined using a VersaMax microplate reader (Molecular Devices).

[2] = tested on: KBtax xenograft tumors; assay: KBtax xenograft tumor model; assay type: in vivo, BALB/c nude mice; conditions: after 21 days, i.p. three times a week; paclitaxel 15 mg/kg, RJ-LC-15-8 8 mg/kg
Method: Using the H1975, MDA-MB-231, and KBtax xenograft models, tumors were established after inoculation into the right flanks of 6-week-old BALB/c nude mice (NARLabs, Taipei, Taiwan). After establishment of the tumors, vehicle and test compounds, which had been dissolved in DMSO, were each injected intraperitoneally into a separate group of animals three times per week. The body mass of each animal and tumor volumes were measured before each drug delivery. Tumor volume was calculated as 0.5W^2L (with W being the width of the smaller diameter and L being the length of the larger diameter). The animal experiment was carried out in accordance with the procedures and guidelines of the Institutional Animal Care and Use Committee, Institute of Biomedical Sciences, Academia Sinica.

[3] = tested on: CCRF-CEM; assay: Cell cytotoxicity assay (MTS), CCRF-CEM; assay type: cell-based; conditions: Homo sapiens
Method: as §1

[4] = Body mass and serum biochemical markers, KBtax xenograft mice; assay type: in vivo, BALB/c nude mice; conditions: end of experiment; paclitaxel 15 mg/kg, RJ-LC-15-8 8 mg/kg; mean ± SEM
Method: The body mass of each animal and tumor volumes were measured before each drug delivery. Tumor volume was calculated as 0.5W^2L (with W being the width of the smaller diameter and L being the length of the larger diameter). The animal experiment was carried out in accordance with the procedures and guidelines of the Institutional Animal Care and Use Committee, Institute of Biomedical Sciences, Academia Sinica.

[5] = tested on: HDQP1/TAX; assay: Cell cytotoxicity assay, HDQP1/TAX; assay type: cell-based, human
Method: as §1

[6] = tested on: KBtax; assay: Cell cytotoxicity assay (MTS), KBtax; assay type: cell-based, human; conditions: for IC50: Homo sapiens, KBtax, P-gp overexpressing, paclitaxel-selected KB subline; for RF, resistance factor (IC50 in resistant cell line/IC50 in parent cell line): KBtax vs KB
Method: as §1

[7] = tested on: KBvin; assay: Cell cytotoxicity assay (MTS), KBvin; assay type: cell-based, human; conditions: for IC50: Homo sapiens, KBvin, P-gp overexpressing, vincristine-selected KB subline; for RF, resistance factor (IC50 in resistant cell line/IC50 in parent cell line): KBvin vs KB
Method: as §1

[8] = target: T1, Purified porcine tubulin (Sus scrofa, UniProt P02554); assay: In vitro tubulin polymerization assay; assay type: biochemical; conditions: 5 μM, A340 every min for 1 h at 37° C.
T1 construct: purchased Cytoskeleton
Method: Reagents from a Tubulin Polymerization Assay kit (Cytoskeleton) were used according to the manufacturer's instructions. Purified porcine tubulin (4 mg/mL; >99% purity) in G-PEM buffer (80 mM PIPES, 2 mM MgCl2, 0.5 mM EGTA, 1 mM GTP, 15% glycerol, pH 6.9) was mixed with each test compound in the wells of a 96-well plate. Then, the A340 value was recorded each minute for 1 h at 37° C. with the VersaMax microplate reader.

[9] = tested on: CEM/VBL; assay: Cell cytotoxicity assay (MTS), CEM/VBL; assay type: cell-based, human; conditions: for RF, resistance factor (IC50 in resistant cell line/IC50 in parent cell line): CEM/VBL vs CCRF-CEM; for IC50: Homo sapiens, CEM/VBL, P-gp overexpressing, vinblastine-selected CCRF-CEM subline
Method: as §1

[10] = tested on: HDQP1; assay: Cell cytotoxicity assay, HDQP1; assay type: cell-based; conditions: Homo sapiens, HDQ-P1; TNBC cell line HDQP1
Method: as §1

[11] = tested on: human fibroblast (HFB) cells; assay: Cell cytotoxicity assay (MTS), human fibroblast; assay type: cell-based; conditions: normal cell line HFB
Method: as §1

[12] = tested on: MDA-MB-231; assay: Cell cytotoxicity assay (MTS), MDA-MB-231; assay type: cell-based; conditions: Homo sapiens, MDA-MB-231, 72 h
Method: as §1

[13] = tested on: KB; assay: Cell cytotoxicity assay (MTS), KB; assay type: cell-based; conditions: Homo sapiens
Method: as §1

[14] = Homo sapiens, NCI-H1975, 72 h, H1975 cells, 72 h, MTS, read-out: IC50
[15] = Homo sapiens, NCI-H1975, Table 8, cell line not given, values match H1975, read-out: IC50
[16] = Homo sapiens, NCI-H1975, H1975 cells, cell-based SAR study, read-out: IC50

T1 sequence (P02554 whole entry): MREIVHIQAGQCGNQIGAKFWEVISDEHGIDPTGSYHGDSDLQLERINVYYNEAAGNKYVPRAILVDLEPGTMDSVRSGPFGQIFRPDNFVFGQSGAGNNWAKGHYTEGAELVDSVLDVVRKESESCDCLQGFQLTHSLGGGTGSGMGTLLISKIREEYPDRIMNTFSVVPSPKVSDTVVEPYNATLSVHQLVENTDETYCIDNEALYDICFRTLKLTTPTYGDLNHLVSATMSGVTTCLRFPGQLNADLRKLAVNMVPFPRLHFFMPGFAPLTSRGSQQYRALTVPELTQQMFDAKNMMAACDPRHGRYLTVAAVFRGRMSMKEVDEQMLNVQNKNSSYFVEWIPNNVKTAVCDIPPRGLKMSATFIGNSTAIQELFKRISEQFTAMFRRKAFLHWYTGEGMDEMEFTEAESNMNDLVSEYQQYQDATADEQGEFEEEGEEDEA
T1 sequence (P02550 whole entry partner): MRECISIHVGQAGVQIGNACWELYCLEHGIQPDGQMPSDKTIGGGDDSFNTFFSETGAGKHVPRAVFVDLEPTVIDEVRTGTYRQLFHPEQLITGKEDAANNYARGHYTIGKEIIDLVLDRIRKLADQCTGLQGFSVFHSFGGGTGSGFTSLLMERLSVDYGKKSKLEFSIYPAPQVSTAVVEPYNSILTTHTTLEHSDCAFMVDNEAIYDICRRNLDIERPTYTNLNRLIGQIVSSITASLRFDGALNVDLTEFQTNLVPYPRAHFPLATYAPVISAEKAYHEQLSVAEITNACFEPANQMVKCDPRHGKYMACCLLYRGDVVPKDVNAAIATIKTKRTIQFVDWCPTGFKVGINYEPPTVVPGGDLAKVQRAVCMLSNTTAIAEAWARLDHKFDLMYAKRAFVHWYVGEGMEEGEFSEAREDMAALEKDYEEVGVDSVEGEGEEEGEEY

## CC(C)OC(=O)c1ccc2[nH]c(-c3ccccc3)cc(=O)c2c1 [RJ-LC-15-15, Isopropyl 4-oxo-2-phenyl-1,4-dihydroquinoline-6-carboxylate]
[1]; [14]
  IC50: 0.048 µM
[1]; [15]
  IC50: 0.048 ± 0.005 µM

## CC(=O)O[C@H]1C(=O)[C@@]2(C)[C@H]([C@H](OC(=O)c3ccccc3)[C@]3(O)C[C@H](OC(=O)[C@H](O)[C@@H](NC(=O)c4ccccc4)c4ccccc4)C(C)=C1C3(C)C)[C@]1(OC(C)=O)CO[C@@H]1C[C@@H]2O [Paclitaxel, paclitaxel]
[2]
  average tumor size: 868.7±121.4 mm^3
[3]
  IC50: 0.004 ± 2e-05 µM
[4]
  AST(IU/L): 102.8 ± 18.9 IU/L
  BUN: 19 ± 1.3 mg/dL
  Cre: 0.16 ± 0.02 mg/dL
[5]; HDQP1/TAX vs HDQP1
  RF, resistance factor (IC50 in resistant cell line/IC50 in parent cell line): 167
[5]; Homo sapiens, HDQ-P1, Paclitaxel-resistant subline
  IC50: 0.839 ± 0.142 µM
[6]
  IC50: 0.101 ± 0.00552 µM
  RF, resistance factor (IC50 in resistant cell line/IC50 in parent cell line): 10
[7]
  IC50: 0.708 ± 0.0469 µM
  RF, resistance factor (IC50 in resistant cell line/IC50 in parent cell line): 70
[8]
  tubulin polymerization: enhanced polymerization
[9]
  RF, resistance factor (IC50 in resistant cell line/IC50 in parent cell line): 214
  IC50: 0.857 ± 0.00989 µM
[10]
  IC50: 0.005 ± 0.00305 µM

## O=C(O)c1ccc2[nH]c(-c3ccccc3)cc(=O)c2c1 [RJ-LC-15-21, Sodium 4-oxo-2-phenyl-1,4-dihydroquinoline-6-carboxylate]
[1]; Homo sapiens, NCI-H1975
  IC50: > 10 µM

## O=C(OCCOCCOCCOCCO)c1ccc2[nH]c(-c3ccccc3)cc(=O)c2c1 [RJ-LC-15-3, 2-(2-(2-(2-hydroxyethoxy)ethoxy)ethoxy)ethyl 4-oxo-2-phenyl-1,4-dihydro quinoline-6-carboxylate]
[1]; [15]
  IC50: 3.3 ± 0.99 µM

## CCOC(=O)c1ccc2[nH]c(-c3ccc(Br)cc3)cc(=O)c2c1 [RJ-LC-15-6, Ethyl 2-(4-bromophenyl)-4-oxo-1,4-dihydroquinoline-6-carboxylate]
[1]; [16]
  IC50: 4.5 µM
[1]; [15]
  IC50: 4.5 ± 0.9 µM

## COC(=O)c1ccc2[nH]c(-c3ccccc3)cc(=O)c2c1 [RJ-LC-15-14, Methyl 4-oxo-2-phenyl-1,4-dihydroquinoline-6-carboxylate]
[1]; [14]
  IC50: 0.207 µM
[1]; [15]
  IC50: 0.207 ± 0.039 µM

## CCNC(=O)c1ccc2[nH]c(-c3cccc(F)c3)cc(=O)c2c1 [RJ-LC-15-27, N-ethyl-2-(3-fluorophenyl)-4-oxo-1,4-dihydroquinoline-6-carboxamide]
[1]; [15]
  IC50: 5.6 ± 0.39 µM

## CC(C)OC(=O)c1ccc2[nH]c(-c3cccc(F)c3)cc(=O)c2c1 [RJ-LC-15-23, Isopropyl 2-(3-fluorophenyl)-4-oxo-1,4-dihydroquinoline-6-carboxylate]
[1]; [14]
  IC50: 0.006 ± 0.00216 µM
[1]; [15]
  IC50: 0.006 ± 0.002 µM
[11]
  IC50: > 10 µM
[12]
  IC50: 0.01 ± 0.0005 µM

## COC(=O)c1ccc2[nH]c(-c3cccc(F)c3)cc(=O)c2c1 [RJ-LC-15-22, Methyl 2-(3-fluorophenyl)-4-oxo-1,4-dihydroquinoline-6-carboxylate]
[1]; [15]
  IC50: 0.027 ± 0.006 µM

## CCOC(=O)c1ccc2[nH]c(-c3cccc(F)c3)cc(=O)c2c1 [RJ-LC-15-20, Ethyl 2-(3-fluorophenyl)-4-oxo-1,4-dihydroquinoline-6-carboxylate Methanesulfonate]
[1]; Table 8, cell line not given, values match H1975, Methanesulfonate, read-out: IC50
  IC50: 0.042 ± 0.004 µM

## CCOC(=O)c1ccc2[nH]c(-c3cccc(Br)c3)cc(=O)c2c1 [RJ-LC-15-25, Ethyl 2-(3-bromophenyl)-4-oxo-1,4-dihydroquinoline-6-carboxylate]
[1]; [15]
  IC50: 0.07 ± 0.019 µM

## CCOCc1ccc2[nH]c(-c3ccccc3)cc(=O)c2c1 [RJ-LC-15-16, 6-(ethoxymethyl)-2-phenylquinolin-4(1H)-one]
[1]; [14]
  IC50: 0.81 µM
[1]; [15]
  IC50: 0.81 ± 0.12 µM

## CCOC(=O)c1ccc2[nH]c(-c3ccc(F)cc3)cc(=O)c2c1 [RJ-LC-15-5, Ethyl 2-(4-fluorophenyl)-4-oxo-1,4-dihydroquinoline-6-carboxylate]
[1]; [16]
  IC50: 2.1 µM
[1]; [15]
  IC50: 2.1 ± 0.21 µM

## CCOC(=O)c1ccc2[nH]c(-c3cccc(OC)c3)cc(=O)c2c1 [RJ-LC-15-7, Ethyl 2-(3-methoxyphenyl)-4-oxo-1,4-dihydroquinoline-6-carboxylate]
[1]; [14]
  IC50: 0.044 µM
[1]; [15]
  IC50: 0.044 ± 0.001 µM

## CCOC(=O)c1ccc2[nH]c(-c3ccccc3)cc(=O)c2c1 [RJ-LC-15-19, Ethyl 4-oxo-2-phenyl-1,4-dihydroquinoline-6-carboxylate Methane Sulfonate]
[1]; Table 8, cell line not given, values match H1975, read-out: IC50
  IC50: 0.069 ± 0.004 µM

## CCOC(=O)c1ccc2[nH]c(-c3ccc(O)cc3)cc(=O)c2c1 [RJ-LC-15-10, Ethyl 2-(4-hydroxyphenyl)-4-oxo-1,4-dihydroquinoline-6-carboxylate]
[1]; [14]
  IC50: 0.475 µM
[1]; [15]
  IC50: 0.475 ± 0.031 µM

## C/C(=C\c1csc(C)n1)[C@@H]1C[C@@H]2O[C@]2(C)CCC[C@H](C)[C@H](O)[C@@H](C)C(=O)C(C)(C)[C@@H](O)CC(=O)N1 [Ixabepilone, ixabepilone]
[3]
  IC50: 0.003 ± 6e-05 µM
[6]
  IC50: 0.035 ± 0.00071 µM
  RF, resistance factor (IC50 in resistant cell line/IC50 in parent cell line): 4.3
[7]
  IC50: 0.193 ± 0.0242 µM
  RF, resistance factor (IC50 in resistant cell line/IC50 in parent cell line): 24
[13]
  IC50: 0.008 ± 0.00037 µM
[9]
  RF, resistance factor (IC50 in resistant cell line/IC50 in parent cell line): 50
  IC50: 0.15 ± 0.00659 µM

## CCOC(=O)c1ccc2c(=O)cc(-c3ccccc3)[nH]c2c1 [RJ-LC-15-18, Ethyl 4-oxo-2-phenyl-1,4-dihydroquinoline-7-carboxylate]
[1]; [15]
  IC50: 0.097 ± 0.003 µM

## CCOC(=O)c1ccc2[nH]c(-c3cccc(C(F)(F)F)c3)cc(=O)c2c1 [RJ-LC-15-9, Ethyl 4-oxo-2-(3-(trifluoromethyl)phenyl)-1,4-dihydroquinoline Carboxylate]
[1]; [14]
  IC50: 0.78 µM
[1]; [15]
  IC50: 0.78 ± 0.012 µM

## O=C(O)c1ccc2[nH]c(-c3cccc(F)c3)cc(=O)c2c1 [RJ-LC-15-26, 2-(3-fluorophenyl)-4-oxo-1,4-dihydroquinoline-6-carboxylic Acid]
[1]; [15]
  IC50: > 10 µM

## CCOC(=O)c1ccc2[nH]c(-c3ccc(OC)cc3)cc(=O)c2c1 [RJ-LC-15-4, Ethyl 2-(4-methoxyphenyl)-4-oxo-1,4-dihydroquinoline-6-carboxylate]
[1]; [16]
  IC50: 2.2 µM
[1]; [15]
  IC50: 2.2 ± 0.2 µM

## CCOC(=O)c1cccc2[nH]c(-c3ccccc3)cc(=O)c12 [RJ-LC-15-17, Ethyl 4-oxo-2-phenyl-1,4-dihydroquinoline-5-carboxylate]
[1]; [15]
  IC50: > 10 µM

## O=C(Oc1ccccc1)c1ccc2[nH]c(-c3cccc(F)c3)cc(=O)c2c1 [RJ-LC-15-24, Phenyl 2-(3-fluorophenyl)-4-oxo-1,4-dihydroquinoline-6-carboxylate]
[1]; [15]
  IC50: 0.3 ± 0.008 µM

## O=C(O)c1ccc2[nH]c(-c3ccccc3)cc(=O)c2c1 [RJ-LC-15-1, 4-oxo-2-phenyl-1,4-dihydroquinoline-6-carboxylic Acid]
[1]; [16]
  IC50: > 5 µM
[1]; [15]
  IC50: > 5 µM

## CCOC(=O)c1ccc2[nH]c(-c3cccc(O)c3)cc(=O)c2c1 [RJ-LC-15-11, Ethyl 2-(3-hydroxyphenyl)-4-oxo-1,4-dihydroquinoline-6-carboxylate]
[1]; [16]
  IC50: 1.95 µM
[1]; [15]
  IC50: 1.95 ± 0.2 µM

## CCNC(=O)c1ccc2[nH]c(-c3ccccc3)cc(=O)c2c1 [RJ-LC-15-2, N-ethyl-4-oxo-2-phenyl-1,4-dihydroquinoline-6-carboxamide]
[1]; [16]
  IC50: 3.7 µM
[1]; [15]
  IC50: 3.7 ± 0.73 µM
